# Source: the supplement of paper PMC10307832
# Assays:
# Assay in all cases: relative viability (nuclei count vs DMSO), 5 days (fraction); higher = more cells survive
# YM155 + Navitoclax = compound: COCC[n+]1c2c(n(Cc3cnccn3)c1C)C(=O)c1ccccc1C2=O [YM155] + CC1(C)CCC(c2ccc(Cl)cc2)=C(CN2CCN(c3ccc(C(=O)NS(=O)(=O)c4ccc(N[C@H](CCN5CCOCC5)CSc5ccccc5)c(S(=O)(=O)C(F)(F)F)c4)cc3)CC2)C1 [Navitoclax] (partner 0.5 µM)
# Method in brief: (§1)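 Values are medians from duplicate plates. Each reflects relative viability, defined as the nuclei count of treated wells over that of vehicle wells. Lung cancer cell lines in 1536-well plates were pin-tool dosed one day after seeding with one drug alone or with a fixed anchor-drug dose plus five library-drug doses (not always all listed) in √10 steps, then fixed, stained and imaged at 4× after 5 days.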
# Quizartinib + Phenformin = compound: CC(C)(C)c1cc(NC(=O)Nc2ccc(-c3cn4c(n3)sc3cc(OCCN5CCOCC5)ccc34)cc2)no1 [Quizartinib] + N=C(N)NC(=N)NCCc1ccccc1 [Phenformin] (partner 250 µM)
# Method in brief: as §1
# Quizartinib + Trametinib = compound: CC(C)(C)c1cc(NC(=O)Nc2ccc(-c3cn4c(n3)sc3cc(OCCN5CCOCC5)ccc34)cc2)no1 [Quizartinib] + CC(=O)Nc1cccc(-n2c(=O)n(C3CC3)c(=O)c3c(Nc4ccc(I)cc4F)n(C)c(=O)c(C)c32)c1 [Trametinib] (partner 0.02 µM)
# Method in brief: as §1
# Quizartinib + Decitabine = compound: CC(C)(C)c1cc(NC(=O)Nc2ccc(-c3cn4c(n3)sc3cc(OCCN5CCOCC5)ccc34)cc2)no1 [Quizartinib] + Nc1ncn([C@H]2C[C@H](O)[C@@H](CO)O2)c(=O)n1 [Decitabine] (partner 2 µM)
# Method in brief: as §1
Cell Line,relative viability (YM155 + Navitoclax; first compound 0.002 µM),relative viability (YM155 + Navitoclax; first compound 0.006325 µM),relative viability (YM155 + Navitoclax; first compound 0.02 µM),relative viability (YM155 + Navitoclax; first compound 0.06325 µM),relative viability (Quizartinib + Phenformin; first compound 0.001 µM),relative viability (Quizartinib + Phenformin; first compound 0.003162 µM),relative viability (Quizartinib + Phenformin; first compound 0.01 µM),relative viability (Quizartinib + Phenformin; first compound 0.03162 µM),relative viability (Quizartinib + Phenformin; first compound 0.1 µM),relative viability (Quizartinib + Trametinib; first compound 0.003162 µM),relative viability (Quizartinib + Trametinib; first compound 0.01 µM),relative viability (Quizartinib + Trametinib; first compound 0.1 µM),relative viability (Quizartinib + Decitabine; first compound 0.003162 µM),relative viability (Quizartinib + Decitabine; first compound 0.01 µM),relative viability (Quizartinib + Decitabine; first compound 0.1 µM),relative viability (Quizartinib + Trametinib; first compound 0.001 µM),relative viability (Quizartinib + Trametinib; first compound 0.03162 µM),relative viability (Quizartinib + Decitabine; first compound 0.001 µM),relative viability (Quizartinib + Decitabine; first compound 0.03162 µM)
NCI-H460,1.17,1.23,1.27,0.903,0.379,0.48,0.587,0.0822,0.028,0.152,0.104,0.0587,0.454,0.613,0.459,–,–,–,–
NCI-H2405,0.891,0.602,0.699,0.226,0.42,0.414,0.402,0.407,0.383,0.621,0.599,0.691,0.72,0.789,0.87,0.623,0.57,0.723,0.737
SK-LU-1,1.05,0.559,1.27,0.418,0.482,0.504,0.625,0.451,0.549,0.372,0.515,0.434,0.631,0.756,0.66,0.464,0.394,0.592,0.717
NCI-H1395,1.4,0.799,1.53,1.55,0.437,0.447,0.46,0.468,0.494,0.924,0.979,1.13,0.74,0.728,0.774,0.842,1.03,0.718,0.718
NCI-H727,0.479,0.382,0.39,0.48,–,0.514,0.584,0.52,0.469,0.355,0.366,0.429,0.829,0.933,1.29,0.424,0.397,0.781,0.831
NCI-H1975,1.09,0.97,1.08,0.626,0.395,0.406,0.476,0.399,0.404,0.381,0.287,0.322,0.368,0.632,0.358,0.285,0.435,0.361,0.379
BEN,0.0838,0.0769,0.0788,0.0609,0.271,0.279,0.272,0.243,0.26,1.02,1.19,1.22,0.756,0.652,0.728,0.998,0.925,0.586,0.649
NCI-H2023,1.04,1.07,0.987,0.261,0.347,0.378,0.372,–,0.312,0.504,0.533,0.615,0.198,0.266,0.214,0.643,–,0.22,0.157
NCI-H1793,–,0.337,0.422,0.301,0.361,0.338,0.385,0.317,0.37,0.435,0.444,0.452,0.404,0.534,0.466,0.395,0.448,0.543,0.534
